{
  "source": "patent US20090298936A1",
  "about": "“METHOD FOR ENERGIZING HUMAN BEINGS” (SYMRISE GmbH & Co. KG, priority 2008, published 2009)",
  "tested_on": "healthy human subjects (panelists)",
  "test": "Sniff test with heartbeat measurement (finger clip Heart Rhythm Monitor, Freeze-Framer 2.0) on human panelists",
  "type": "in vivo",
  "details": "for energizing effect compared with Amarocite and the mixtures: solution in mineral oil",
  "text": "In order to introduce compounds of group (a) or a sensory complex as described above into the nasal cavity that will occur using many types of products containing the sensory complex the following method of human testing and data collection was developed, standardized and used to collect and analyze data to substantiate the energizing effects of the sensory complex materials in group (a).\nData collection and analysis of each panelists's heart rate was made using a finger clip attachment for the Heart Rhythm Monitor using Freeze-Framer® 2.0 software from HeartMath®, 14700 West Park Avenue, Boulder Creek, Calif.\nThe test is divided into 3 parts: • 1) the pre-sniff-test period: places the panelist in a neutral state (15 min), • 2) the sniff-test period (5 min), • 3) the post-sniff-test period (10 min). Typically during each test session, three fragrances (single compound or mixture of compounds) are presented to the panelist, so one test lasts for one hour.",
  "note": "Where “and” joins values, the source holds several entries; their conditions need not be identical. Equal entries are not always repeated.",
  "data": [
    {"smiles": "CC(C)CCCC(C)CCO", "note": "(stereo not drawn) [tetrahydrogeraniol]", "values": [
      {"measurement": "energizing effect compared with Amarocite and the mixtures", "setting": "0.8 wt.-% alone", "result": "Stronger energizing effects"}
    ]},
    {"smiles": "COC(OC)C(C)(C)CC=C(C)C", "note": "[Amarocite ®, 1,1-dimethoxy-2,2,5-trimethyl-4-hexene]", "values": [
      {"measurement": "Heartbeat (bpm) After", "setting": "individual panelists A-G, after inhalation, 1 wt.-% solution in mineral oil", "result": "77 bpm and 81 bpm and 70 bpm and 78 bpm and 72 bpm and 71 bpm and 90 bpm"},
      {"measurement": "Heartbeat (bpm) Difference", "setting": "individual panelists A-G, after minus before, 1 wt.-% solution in mineral oil", "result": "+9 bpm and +25 bpm and +6 bpm (2×) and +10 bpm and +12 bpm (2×)"},
      {"measurement": "Heartbeat (bpm) Before", "setting": "individual panelists A-G, before inhalation (baseline), 1 wt.-% solution in mineral oil", "result": "68 bpm (2×) and 56 bpm and 64 bpm and 60 bpm and 59 bpm and 84 bpm"},
      {"measurement": "Heartbeat (bpm) After, Mean", "setting": "mean of panelists A-G, after inhalation, 1 wt.-% solution in mineral oil", "result": 77, "unit": "bpm"},
      {"measurement": "Heartbeat (bpm) Difference, Mean", "setting": "mean of panelists A-G, after minus before, 1 wt.-% solution in mineral oil", "result": "+11.4 bpm"},
      {"measurement": "Heartbeat (bpm) Before, Mean", "setting": "mean of panelists A-G, before inhalation (baseline), 1 wt.-% solution in mineral oil", "result": 65.6, "unit": "bpm"},
      {"measurement": "average heart rate increase", "setting": "panelists, administered according to the protocol", "result": 17.3, "unit": "%"}
    ]},
    {"smiles": "CCCCCC1C(=O)CCC1CC(=O)OC", "note": "(stereo not drawn) [methyl dihydro jasmonate]", "values": [
      {"measurement": "energizing effect compared with Amarocite and the mixtures", "setting": "2.0 wt.-% alone", "result": "Stronger energizing effects"}
    ]}
  ]
}
